Laboratory results published in US11104672B2, “Polymorphs” (Syngenta Participations AG, priority 2017, dated 2021).

Experiment: Stability of polymorphs: stirring in dimethyl carbonate, crystals characterised by DSC and pXRD
Format: physicochemical
Conditions: stirred in 5 ml dimethyl carbonate for two days, crystals isolated, air dried
Experimental: Powder X-ray diffraction analysis of solid material was carried out using the Bruker D8 powder diffractometer at room temperature and at relative humidities above 40%. Samples were mounted in Perspex sample holders and the samples flattened. The sample holder was rotated and X-rays were collected from 4° to 34° 2-theta, with a scan time of 25 to 30 minutes depending on the pattern intensity.
DSC was carried out using a Mettler Toledo DSC1. A sample loading of around 5 mg was used and this was heated from 25° C. to 160° C. at a rate of 10° C./minute. The lid of the DSC crucible was pierced to allow the escape of any gas formed during the heating of the sample.
A sample of the polymorph designated Form A(c) was stirred in 5 ml dimethyl carbonate for two days. The crystals were isolated, air dried and characterised by DSC and pXRD.

## CCN1OC[C@@H](NC(=O)c2ccc(C3=NO[C@@](c4cc(Cl)c(F)c(Cl)c4)(C(F)(F)F)C3)cc2C)C1=O [Form A(c)]
  Polymorphic stability (solid form found after stirring): all of the Form A(c) had converted into Form (A)a
